Results: patent US4719214A, “Carbocyclic analogues of thymine nucleosides” (priority 1985, dated 1988)
≈ marks a conversion by molar mass, not a printed value. Where “and” joins values, the source holds several entries; their conditions need not be identical. Equal entries are not always repeated. Entries after “also recorded” stand apart in the source; their conditions may differ. Where two headings read alike, the source gives them in different places.

Experiments:
[1] = tested on: Herpes Simplex Virus Type 1, Strain 377; assay: Antiviral activity vs. herpes simplex virus type 1 replicating in Vero cells (virus-induced cytopathogenic effects); type: cell-based; conditions: for antiviral activity vs. HSV-1 (in words): HSV-1, Table 1 summary; for Virus rating (VR): 0.5-0.9 marginal to moderate, >=1 definite antiviral activity; for EC50: Human alphaherpesvirus 1, Vero, read-out: MIC50 (minimum inhibitory concentration, 50%)
Procedure: (§1) The MIC50 (minimum inhibitory concentration, 50%) is the concentration of a test compound required for 50% inhibition of virus-induced cytopathogenic effects.
(§2) ^a Antiviral evaluations were performed with HSV1 or HSV2 replicating

[2] = tested on: Herpes Simplex Virus Type 2, Strain MS; assay: Antiviral activity vs. herpes simplex virus type 2 replicating in Vero cells (virus-induced cytopathogenic effects); type: cell-based; conditions: for antiviral activity vs. HSV-2 (in words): HSV-2, Table 1 summary; for Virus rating (VR): 0.5-0.9 marginal to moderate, >=1 definite antiviral activity; for EC50: Human alphaherpesvirus 2, Vero, read-out: MIC50 (minimum inhibitory concentration, 50%)
Procedure: as §1, §2

thymidine phosphorylase = conditions: isolated from human blood platelets; cited from earlier work
[3] = rats; cited from earlier work
[4] = HSV-1 strain 377, Vero cells, 50% inhibition of virus-induced cytopathogenic effects
[5] = HSV-2 strain MS, Vero cells, 50% inhibition of virus-induced cytopathogenic effects
[6] = listed as carbocyclic analogue of 5-ethynyl-2'-deoxyuridine

Row | EC50 [1, 4] [µg/mL] | EC50 [2, 5] [µg/mL] | SMILES | antiviral activity vs. HSV-1 (in words) [1] | Virus rating (VR) ([1]; HSV-1 strain 377, Vero cells) | antiviral activity vs. HSV-2 (in words) [2] | Virus rating (VR) ([2]; HSV-2 strain MS, Vero cells) | substrate for thymidine phosphorylase (thymidine phosphorylase) | EC50 [1] [µg/mL] | EC50 [2] [µg/mL] | other results
1 | 45 (≈ 177 µM) | 227 (≈ 893 µM) | CCc1cn([C@@H]2C[C@H](CO)[C@@H](O)C2)c(=O)[nH]c1=O (relative stereo) [C-EDU, 5-Ethyl-1-[(1α,3β,4α)-3-Hydroxy-4-(hydroxymethyl)cyclopentyl]-2,4(1H,3H)-pyrimidinedione] | comparable to those of 9-β-D-arabinofuranosyladenine (Ara-A); also recorded: as active vs. HSV-1 as is the corresponding true nucleoside, 5-ethyl-2'-deoxyuridine (EDU); also recorded: inhibits the replication | 2.4 and 2.1 | comparable to those of 9-β-D-arabinofuranosyladenine (Ara-A); also recorded: definite and significant activity against HSV-2; also recorded: inhibits the replication | 1.1 | – | – | – | MIC50 (minimum inhibitory concentration, 50%) [1, 4]: 69 µg/mL (≈ 271 µM); MIC50 (minimum inhibitory concentration, 50%) [2, 5]: 178 µg/mL (≈ 700 µM)
2 | 253 (≈ 1010 µM) | 207 (≈ 827 µM) | C#Cc1cn([C@@H]2C[C@H](CO)[C@@H](O)C2)c(=O)[nH]c1=O (relative stereo) [Example 4, 1-[(1α,3β,4α)-3-Hydroxy-4-(hydroxymethyl)cyclopentyl]-5-ethynyl-2,4(1H,3H)-pyrimidinedione] | significant antiviral activity | 0.9 | significant antiviral activity | 1.1 | – | – | – | antiviral activity vs. HSV-1 (in words) [1, 6]: significant, selective activity; antiviral activity vs. HSV-2 (in words) [2, 6]: significant, selective activity
3 | – | – | O=c1[nH]c(=O)n([C@H]2C[C@H](O)[C@@H](CO)O2)cc1/C=C/Br [BVDU, 5-[(E)-2-(bromovinyl)]-2'-deoxyuridine] | – | – | – | – | substrates for thymidine phosphorylase | – | – | –
4 | – | – | C[Si](C)(C)CCc1cn([C@@H]2C[C@H](CO)[C@@H](O)C2)c(=O)[nH]c1=O (relative stereo) [Example 7, 1-[(1α,3β,4α)-3-Hydroxy-4-(hydroxymethyl)cyclopentyl]-5-[2-(trimethylsilyl)ethyl]-2,4(1H,3H)-pyrimidinedione] | antiviral activity | 0.5 | – | – | – | 320 (≈ 980 µM) | – | antiviral activity vs. HSV-1 (in words) ([1]; listed as carbocyclic analogue of 5-trimethylsilylethyl-2'-deoxyuridine): activity against HSV-1
5 | – | – | Nc1ncnc2c1ncn2[C@@H]1O[C@H](CO)[C@@H](O)[C@@H]1O [Ara-A, 9-β-D-arabinofuranosyladenine, reference compound] | – | 2.0-2.1 | – | 1.3-1.7 | – | 15 to 19 (≈ 56.1 to 71.1 µM) | 22 to 45 (≈ 82.3 to 168 µM) | –
6 | – | – | CCc1cn([C@H]2C[C@H](O)[C@@H](CO)O2)c(=O)[nH]c1=O [EDU, 5-ethyl-2'-deoxyuridine, reference compound] | – | 2.3 | – | 2.2 | substrates for thymidine phosphorylase | 19 (≈ 74.1 µM) | 321 (≈ 1250 µM) | cleavage products identified as metabolites [3]: 5-ethyluracil and 5-(2-hydroxyethyl)uracil
